Test results: publication PMC9481570, “A small molecule antagonist of SMN disrupts the interaction between SMN and RNAP II” (Nature Communications, 2022)
“And” between values parts separate entries of the source, which are not always exact repeats. Identical values can stand only once.

Assays:
Assay in all cases: Affinity-purification and mass spectrometry (AP-MS) chemical proteomics, all proteins;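 on Difference: 200 µM free competitor with 20 µM biotin probe overnight in lysate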
Assay type in all cases: binding
[1] = target: T1, proteins displaced from immobilized biotin-Cmpd 1 pulldowns (U2OS cell lysate) (Homo sapiens, UniProt Q13601); details: GN=KRR1 (Q13601)
T1 construct: endogenous in cells; host or cells: U2OS
T1 sequence (Q13601 whole entry): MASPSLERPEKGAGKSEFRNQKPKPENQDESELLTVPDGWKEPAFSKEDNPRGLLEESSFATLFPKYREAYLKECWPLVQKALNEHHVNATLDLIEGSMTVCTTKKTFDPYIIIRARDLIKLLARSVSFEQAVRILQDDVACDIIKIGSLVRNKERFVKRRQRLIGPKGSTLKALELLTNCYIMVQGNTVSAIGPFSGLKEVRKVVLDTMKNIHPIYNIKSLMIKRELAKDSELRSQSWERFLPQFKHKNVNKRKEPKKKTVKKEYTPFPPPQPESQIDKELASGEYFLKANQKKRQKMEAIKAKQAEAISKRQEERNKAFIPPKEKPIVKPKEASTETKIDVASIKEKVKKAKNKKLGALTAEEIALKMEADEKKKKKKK

[2] = target: T2, proteins displaced from immobilized biotin-Cmpd 1 pulldowns (U2OS cell lysate) (Homo sapiens, UniProt P20700); details: GN=LMNB1 (P20700)
T2 construct: endogenous in cells; host or cells: U2OS
T2 sequence (P20700 whole entry): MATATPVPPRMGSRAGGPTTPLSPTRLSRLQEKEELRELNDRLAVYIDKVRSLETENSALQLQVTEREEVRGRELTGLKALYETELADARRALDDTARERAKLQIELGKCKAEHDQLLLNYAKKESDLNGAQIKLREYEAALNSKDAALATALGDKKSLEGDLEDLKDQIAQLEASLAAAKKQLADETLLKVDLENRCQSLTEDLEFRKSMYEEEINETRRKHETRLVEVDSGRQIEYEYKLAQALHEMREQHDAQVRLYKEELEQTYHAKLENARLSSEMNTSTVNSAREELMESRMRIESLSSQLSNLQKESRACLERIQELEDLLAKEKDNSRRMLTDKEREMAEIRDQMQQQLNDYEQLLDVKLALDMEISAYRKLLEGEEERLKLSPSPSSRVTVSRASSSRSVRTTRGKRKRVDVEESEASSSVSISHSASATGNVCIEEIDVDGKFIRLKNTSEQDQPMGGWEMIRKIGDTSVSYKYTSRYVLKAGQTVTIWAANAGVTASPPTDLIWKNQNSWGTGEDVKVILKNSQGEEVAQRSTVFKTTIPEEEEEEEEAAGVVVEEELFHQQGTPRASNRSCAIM

[3] = target: T3, proteins displaced from immobilized biotin-Cmpd 1 pulldowns (U2OS cell lysate) (Homo sapiens, UniProt Q9UH17); details: GN=APOBEC3B (Q9UH17)
T3 construct: endogenous in cells; host or cells: U2OS
T3 sequence (Q9UH17 whole entry): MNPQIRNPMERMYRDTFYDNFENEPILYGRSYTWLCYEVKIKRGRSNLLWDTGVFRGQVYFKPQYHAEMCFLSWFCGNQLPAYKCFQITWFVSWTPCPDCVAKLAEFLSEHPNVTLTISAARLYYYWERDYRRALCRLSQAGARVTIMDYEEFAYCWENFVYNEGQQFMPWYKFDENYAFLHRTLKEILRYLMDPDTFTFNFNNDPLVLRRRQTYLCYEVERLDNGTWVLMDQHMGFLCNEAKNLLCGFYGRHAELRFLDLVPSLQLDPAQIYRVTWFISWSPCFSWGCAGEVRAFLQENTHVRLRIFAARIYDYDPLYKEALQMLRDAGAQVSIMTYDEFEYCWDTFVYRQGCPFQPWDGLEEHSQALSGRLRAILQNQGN

[4] = target: T4, proteins displaced from immobilized biotin-Cmpd 1 pulldowns (U2OS cell lysate) (Homo sapiens, UniProt P06733); details: GN=ENO1 (P06733)
T4 construct: endogenous in cells; host or cells: U2OS
T4 sequence (P06733 whole entry): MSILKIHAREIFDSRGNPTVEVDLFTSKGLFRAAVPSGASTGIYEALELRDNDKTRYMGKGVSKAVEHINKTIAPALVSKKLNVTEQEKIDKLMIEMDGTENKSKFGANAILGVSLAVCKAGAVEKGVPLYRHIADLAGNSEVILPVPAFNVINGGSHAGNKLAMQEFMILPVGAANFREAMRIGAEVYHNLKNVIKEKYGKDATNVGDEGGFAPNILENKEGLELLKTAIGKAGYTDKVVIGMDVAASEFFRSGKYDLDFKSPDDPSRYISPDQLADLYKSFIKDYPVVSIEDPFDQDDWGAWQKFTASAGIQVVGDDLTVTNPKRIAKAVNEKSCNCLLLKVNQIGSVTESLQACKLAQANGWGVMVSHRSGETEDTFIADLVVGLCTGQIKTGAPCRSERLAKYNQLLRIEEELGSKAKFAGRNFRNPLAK

[5] = target: T5, proteins displaced from immobilized biotin-Cmpd 1 pulldowns (U2OS cell lysate) (Homo sapiens, UniProt P25311); details: GN=AZGP1 (P25311)
T5 construct: endogenous in cells; host or cells: U2OS
T5 sequence (P25311 21-298): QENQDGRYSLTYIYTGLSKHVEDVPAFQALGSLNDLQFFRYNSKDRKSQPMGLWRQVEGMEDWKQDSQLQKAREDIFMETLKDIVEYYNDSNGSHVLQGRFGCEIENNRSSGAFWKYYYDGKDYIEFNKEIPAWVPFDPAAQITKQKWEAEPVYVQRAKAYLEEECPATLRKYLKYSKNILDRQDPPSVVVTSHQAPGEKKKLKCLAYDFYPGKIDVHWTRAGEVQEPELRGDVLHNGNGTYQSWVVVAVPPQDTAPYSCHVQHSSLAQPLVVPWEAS

[6] = target: T6, proteins displaced from immobilized biotin-Cmpd 1 pulldowns (U2OS cell lysate) (Homo sapiens, UniProt Q15050); details: GN=RRS1 (Q15050)
T6 construct: endogenous in cells; host or cells: U2OS
T6 sequence (Q15050 whole entry): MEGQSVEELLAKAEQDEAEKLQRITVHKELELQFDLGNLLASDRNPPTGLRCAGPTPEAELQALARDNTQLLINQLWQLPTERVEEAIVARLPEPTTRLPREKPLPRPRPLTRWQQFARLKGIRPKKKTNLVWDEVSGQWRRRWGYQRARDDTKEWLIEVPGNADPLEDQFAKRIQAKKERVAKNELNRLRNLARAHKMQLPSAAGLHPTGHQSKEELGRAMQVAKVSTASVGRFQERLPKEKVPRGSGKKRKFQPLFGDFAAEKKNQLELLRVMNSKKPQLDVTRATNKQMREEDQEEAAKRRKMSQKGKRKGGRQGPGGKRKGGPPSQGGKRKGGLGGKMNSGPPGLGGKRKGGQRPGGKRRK

[7] = target: T7, proteins displaced from immobilized biotin-Cmpd 1 pulldowns (U2OS cell lysate) (Homo sapiens, UniProt Q9BYD6); details: GN=MRPL1 (Q9BYD6)
T7 construct: endogenous in cells; host or cells: U2OS

[8] = target: T8, proteins displaced from immobilized biotin-Cmpd 1 pulldowns (U2OS cell lysate) (Homo sapiens, UniProt Q13200); details: GN=PSMD2 (Q13200)
T8 construct: endogenous in cells; host or cells: U2OS
T8 sequence (Q13200 whole entry): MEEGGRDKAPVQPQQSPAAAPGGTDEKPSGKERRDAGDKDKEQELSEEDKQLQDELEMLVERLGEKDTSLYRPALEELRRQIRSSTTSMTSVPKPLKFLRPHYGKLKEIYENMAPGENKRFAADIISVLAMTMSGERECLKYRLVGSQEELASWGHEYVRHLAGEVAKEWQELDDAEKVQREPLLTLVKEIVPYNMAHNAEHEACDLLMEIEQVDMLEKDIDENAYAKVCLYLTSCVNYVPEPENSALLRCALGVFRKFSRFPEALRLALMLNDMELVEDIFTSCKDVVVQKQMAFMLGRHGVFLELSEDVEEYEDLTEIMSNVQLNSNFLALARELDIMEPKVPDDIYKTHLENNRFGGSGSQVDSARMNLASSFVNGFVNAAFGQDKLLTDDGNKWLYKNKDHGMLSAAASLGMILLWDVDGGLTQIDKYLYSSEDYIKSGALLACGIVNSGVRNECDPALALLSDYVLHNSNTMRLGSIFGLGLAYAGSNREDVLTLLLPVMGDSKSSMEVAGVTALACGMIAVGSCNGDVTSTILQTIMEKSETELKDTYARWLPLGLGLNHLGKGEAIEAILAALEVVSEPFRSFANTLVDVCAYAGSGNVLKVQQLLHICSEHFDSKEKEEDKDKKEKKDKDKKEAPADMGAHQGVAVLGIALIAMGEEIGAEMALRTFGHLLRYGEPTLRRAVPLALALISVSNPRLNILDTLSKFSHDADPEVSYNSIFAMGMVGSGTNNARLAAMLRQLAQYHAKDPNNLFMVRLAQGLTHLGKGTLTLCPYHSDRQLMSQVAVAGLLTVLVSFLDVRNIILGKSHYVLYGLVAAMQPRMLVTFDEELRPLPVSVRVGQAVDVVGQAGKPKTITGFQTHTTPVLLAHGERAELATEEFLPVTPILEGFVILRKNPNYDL

[9] = target: T9, proteins displaced from immobilized biotin-Cmpd 1 pulldowns (U2OS cell lysate) (Homo sapiens, UniProt Q92621); details: GN=NUP205 (Q92621)
T9 construct: endogenous in cells; host or cells: U2OS

[10] = target: T10, proteins displaced from immobilized biotin-Cmpd 1 pulldowns (U2OS cell lysate) (Homo sapiens, UniProt P28370); details: GN=SMARCA1 (P28370)
T10 construct: endogenous in cells; host or cells: U2OS
T10 sequence (P28370 whole entry): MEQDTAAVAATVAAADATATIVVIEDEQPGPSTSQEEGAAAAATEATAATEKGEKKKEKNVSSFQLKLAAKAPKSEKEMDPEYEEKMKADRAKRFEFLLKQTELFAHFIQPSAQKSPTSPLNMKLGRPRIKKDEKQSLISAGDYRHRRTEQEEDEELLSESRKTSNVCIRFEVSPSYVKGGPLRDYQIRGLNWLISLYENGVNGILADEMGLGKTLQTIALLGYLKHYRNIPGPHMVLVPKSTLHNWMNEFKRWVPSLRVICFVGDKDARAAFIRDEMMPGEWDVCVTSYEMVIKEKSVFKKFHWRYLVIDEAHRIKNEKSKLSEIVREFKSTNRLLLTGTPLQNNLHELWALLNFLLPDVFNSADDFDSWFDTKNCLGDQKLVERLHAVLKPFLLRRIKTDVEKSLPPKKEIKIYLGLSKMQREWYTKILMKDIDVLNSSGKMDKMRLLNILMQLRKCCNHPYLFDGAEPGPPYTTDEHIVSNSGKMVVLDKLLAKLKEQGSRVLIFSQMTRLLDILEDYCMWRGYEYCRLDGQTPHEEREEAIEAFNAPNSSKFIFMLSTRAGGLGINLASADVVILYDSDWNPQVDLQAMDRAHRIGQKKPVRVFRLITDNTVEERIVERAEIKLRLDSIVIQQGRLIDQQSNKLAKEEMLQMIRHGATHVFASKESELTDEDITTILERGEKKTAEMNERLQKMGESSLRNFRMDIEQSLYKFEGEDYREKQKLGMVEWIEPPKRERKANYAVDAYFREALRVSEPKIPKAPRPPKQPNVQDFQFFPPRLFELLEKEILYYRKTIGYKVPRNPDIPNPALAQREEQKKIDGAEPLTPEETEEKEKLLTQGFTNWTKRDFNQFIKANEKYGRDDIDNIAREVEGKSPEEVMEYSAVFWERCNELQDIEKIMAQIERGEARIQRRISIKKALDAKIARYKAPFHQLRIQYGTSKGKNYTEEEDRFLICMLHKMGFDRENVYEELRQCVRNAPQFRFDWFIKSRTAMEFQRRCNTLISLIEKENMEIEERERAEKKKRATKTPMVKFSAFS

Cn1c2c(c(=N)c3c1CCC3)CCC2 [Compound 1, 4-methyl-2,3,4,5,6,7-hexahydrodicyclopenta[b,e]pyridin-8(1H)-imine]
Difference ([1]; Cmpd minus DMSO, -LOG(P-value) 0.80089): 1.298 | iBAQ Cmpd ([1]; replicates 1-3): 17.9419 and 17.334 and 17.0379 | Difference ([2]; Cmpd minus DMSO, -LOG(P-value) 0.765149): 0.6571 | iBAQ Cmpd ([2]; replicates 1-3): 20.5307 and 20.0559 and 19.5746 | Difference ([3]; Cmpd minus DMSO, -LOG(P-value) 0.938202): -0.8112 | iBAQ Cmpd ([3]; replicates 1-3): 21.4277 and 21.5751 and 21.8529 | Difference ([4]; Cmpd minus DMSO, -LOG(P-value) 1.38674): -0.4405 | iBAQ Cmpd ([4]; replicates 1-3): 21.5649 and 21.7568 and 21.506 | Difference ([5]; Cmpd minus DMSO, -LOG(P-value) 0.92202): -1.239 | iBAQ Cmpd ([5]; replicates 1-3): 21.041 and 21.3151 and 19.6243 | Difference ([6]; Cmpd minus DMSO, -LOG(P-value) 0.720694): 2.281 | iBAQ Cmpd ([6]; replicates 1-3): 15.4548 and 18.445 and 19.3119 | Difference ([7]; Cmpd minus DMSO, -LOG(P-value) 1.01314): 3.091 | iBAQ Cmpd ([7]; replicates 1-3): 18.4151 and 17.6221 and 18.5153 | Difference ([8]; Cmpd minus DMSO, -LOG(P-value) 1.86828): -0.9512 | iBAQ Cmpd ([8]; replicates 1-3): 17.2697 and 17.2993 and 16.9257 | Difference ([9]; Cmpd minus DMSO, -LOG(P-value) 0.772292): 1.661 | iBAQ Cmpd ([9]; replicates 1-3): 17.4605 and 16.7059 and 15.0689 | Difference ([10]; Cmpd minus DMSO, -LOG(P-value) 1.24318): 1.73 | iBAQ Cmpd ([10]; replicates 1-3): 17.0232 and 15.8844 and 17.1364
